Reference: PubChem BioAssay (NCI)
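Protocol summary: plate cells (96-well), add compound at 5 concentrations, incubate 48 h, interpolate endpoints linearly. Abbreviation: GI50, concentration required for 50% inhibition of growth. TGI: concentration producing complete growth inhibition.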

What was measured:
Experiment in all cases: NCI-60 cell line screen, 48 h
[1] = test system: 786-0 renal
[2] = test system: A498 renal
[3] = test system: A549 NSCLC
[4] = test system: ACHN renal
[5] = test system: BT-549 breast
[6] = test system: CAKI-1 renal
[7] = test system: CCRF-CEM leukemia
[8] = test system: COLO 205 colon
[9] = test system: DU-145 prostate
[10] = test system: EKVX NSCLC
[11] = test system: HCC-2998 colon
[12] = test system: HCT-116 colon
[13] = test system: HCT-15 colon
[14] = test system: HL-60(TB) leukemia
[15] = test system: HOP-62 NSCLC
[16] = test system: HOP-92 NSCLC
[17] = test system: HS 578T breast
[18] = test system: HT29 colon
[19] = test system: IGROV1 ovarian
[20] = test system: K-562 leukemia
[21] = test system: KM12 colon
[22] = test system: LOX IMVI melanoma
[23] = test system: M14 melanoma
[24] = test system: MALME-3M melanoma
[25] = test system: MCF7 breast
[26] = test system: MDA-MB-231 breast
[27] = test system: MDA-MB-435
[28] = test system: MOLT-4 leukemia
[29] = test system: NCI-H226 lung
[30] = test system: NCI-H23 lung
[31] = test system: NCI-H460 lung
[32] = test system: NCI-H522 lung
[33] = test system: NCI/ADR-RES ovarian
[34] = test system: OVCAR-3 ovarian
[35] = test system: OVCAR-4 ovarian
[36] = test system: OVCAR-5 ovarian
[37] = test system: OVCAR-8 ovarian
[38] = test system: PC-3 prostate
[39] = test system: RPMI-8226 leukemia
[40] = test system: RXF 393 renal
[41] = test system: SF-268 CNS
[42] = test system: SF-295 CNS
[43] = test system: SF-539 CNS
[44] = test system: SK-MEL-2 melanoma
[45] = test system: SK-MEL-28 melanoma
[46] = test system: SK-MEL-5 melanoma
[47] = test system: SK-OV-3 ovarian
[48] = test system: SN12C renal
[49] = test system: SNB-19 CNS
[50] = test system: SNB-75 CNS
[51] = test system: SW-620 colon
[52] = test system: T-47D breast
[53] = test system: TK-10 renal
[54] = test system: U251 CNS
[55] = test system: UACC-257 melanoma
[56] = test system: UACC-62 melanoma
[57] = test system: UO-31 renal

## Cc1ccc(NCCN(C)C)c2c(=O)c3ccccc3sc12
[1]
  GI50: 1580 nM
  TGI: 3540 nM
[2]
  GI50: 1140 nM
  TGI: 2520 nM
[3]
  GI50: 1350 nM
  TGI: 3400 nM
[4]
  GI50: 1680 nM
  TGI: 3530 nM
[5]
  GI50: 3890 nM
  TGI: 15500 nM
[6]
  GI50: 2080 nM
  TGI: 7560 nM
[7]
  GI50: 2120 nM
  TGI: 6180 nM
[8]
  GI50: 1290 nM
  TGI: 2650 nM
[9]
  GI50: 2020 nM
  TGI: 4630 nM
[10]
  GI50: 2960 nM
  TGI: 9930 nM
[11]
  GI50: 1570 nM
  TGI: 2920 nM
[12]
  GI50: 1470 nM
  TGI: 2800 nM
[13]
  GI50: 2210 nM
  TGI: 6530 nM
[14]
  GI50: 1720 nM
  TGI: 4150 nM
[15]
  GI50: 1550 nM
  TGI: 3110 nM
[16]
  GI50: 1040 nM
  TGI: 4410 nM
[17]
  GI50: 1590 nM
  TGI: 3760 nM
[18]
  GI50: 1620 nM
  TGI: 3770 nM
[19]
  GI50: 1500 nM
  TGI: 5050 nM
[20]
  GI50: 1600 nM
  TGI: 3560 nM
[21]
  GI50: 1660 nM
  TGI: 3100 nM
[22]
  GI50: 1610 nM
  TGI: 3450 nM
[23]
  GI50: 1590 nM
  TGI: 3050 nM
[24]
  GI50: 1660 nM
  TGI: 3280 nM
[25]
  GI50: 1470 nM
  TGI: 2950 nM
[26]
  GI50: 1690 nM
  TGI: 3730 nM
[27]
  GI50: 1710 nM
  TGI: 3470 nM
[28]
  GI50: 1130 nM
  TGI: 4330 nM
[29]
  GI50: 1830 nM
  TGI: 3960 nM
[30]
  GI50: 1970 nM
  TGI: 4750 nM
[31]
  GI50: 1410 nM
  TGI: 3010 nM
[32]
  GI50: 1890 nM
  TGI: 5380 nM
[33]
  GI50: 1930 nM
  TGI: 4600 nM
[34]
  GI50: 1860 nM
  TGI: 3730 nM
[35]
  GI50: 2670 nM
  TGI: 8760 nM
[36]
  GI50: 1760 nM
  TGI: 3380 nM
[37]
  GI50: 3160 nM
  TGI: 12400 nM
[38]
  GI50: 1970 nM
  TGI: 5130 nM
[39]
  GI50: 1670 nM
  TGI: 4210 nM
[40]
  GI50: 1960 nM
  TGI: 4590 nM
[41]
  GI50: 1970 nM
  TGI: 4740 nM
[42]
  GI50: 1880 nM
  TGI: 4460 nM
[43]
  GI50: 1590 nM
  TGI: 2970 nM
[44]
  GI50: 2000 nM
  TGI: 4310 nM
[45]
  GI50: 1710 nM
  TGI: 3110 nM
[46]
  GI50: 1490 nM
  TGI: 2830 nM
[47]
  GI50: 1730 nM
  TGI: 3920 nM
[48]
  GI50: 2450 nM
  TGI: 9610 nM
[49]
  GI50: 2240 nM
  TGI: 6630 nM
[50]
  GI50: 1490 nM
  TGI: 3080 nM
[51]
  GI50: 1460 nM
  TGI: 3020 nM
[52]
  GI50: 1820 nM
  TGI: 4960 nM
[53]
  GI50: 2340 nM
  TGI: 5450 nM
[54]
  GI50: 1830 nM
  TGI: 3820 nM
[55]
  GI50: 1880 nM
  TGI: 3830 nM
[56]
  GI50: 1690 nM
  TGI: 3290 nM
[57]
  GI50: 1280 nM
  TGI: 2850 nM
